{"source": "patent US20240082416A1", "about": "“AMATOXIN ANALOGS AND USES THEREOF” (THE UNIVERSITY OF BRITISH COLUMBIA, priority 2020, published 2024)", "test_system": "CHO cells", "assay": "Viability assay against CHO cells (MTT colorimetric assay)", "assay_type": "cell-based, Chinese hamster", "settings": "72 h, replicates n = 1, 2, 3", "note": "“And” between values parts separate entries of the source, which are not always exact repeats. Equal values may be shown once. Starred links: 1 amine or outer side, 2 acyl side, 3 side chain; linkers in the order of their positions; H or OH if unused. Positions of bridges follow the written chain, without caps; N, C: chain ends. Non-standard residues stand in square brackets, D forms with d. Residues, ends and D or L forms follow the SMILES beside them. Trp(2-yl) = O=C([C@H](Cc1c([*:3])[nH]c2ccccc12)N[*:1])[*:2]; Pro(trans-4-guanidino) = N=C(N)N[C@H]1CN[C@H](C(=O)O)C1; Pro(4R-SH) = O=C([C@@H]1C[C@@H](S[*:3])CN1[*:1])[*:2]; Ile(4R-OH,5-OH) = C[C@H]([C@H](N)C(=O)O)[C@@H](O)CO; X1 = N#C[C@@H]1C[C@@H](C(=O)[*:2])N([*:1])C1; Pro(4R-NH2) = N[C@H]1CN[C@H](C(=O)O)C1"}
{"smiles": "CC[C@H](C)[C@@H]1NC(=O)CNC(=O)[C@@H]2Cc3c([nH]c4ccccc34)SC[C@H](NC(=O)CNC1=O)C(=O)N[C@@H](CC(N)=O)C(=O)N1C[C@H](NC(=N)N)C[C@H]1C(=O)N[C@@H]([C@@H](C)[C@@H](O)CO)C(=O)N2", "note": "[Compound 7, Gdn-Pro-amanitin] (cyclo(CN[Pro(trans-4-guanidino)][Ile(4R-OH,5-OH)][Trp(2-yl)]GIG); thioether 1-5)", "values": [{"measurement": "% viable cells", "setting": "1e-005 M, listed as Gdn-Pro-amanitin (7)", "value": 102, "unit": "%"}, {"measurement": "% viable cells", "setting": "1.25e-006 M, listed as Gdn-Pro-amanitin (7)", "value": 86, "unit": "%"}, {"measurement": "% viable cells", "setting": "1.56e-007 M, listed as Gdn-Pro-amanitin (7)", "value": "91% and 80%"}, {"measurement": "% viable cells", "setting": "2e-005 M, listed as Gdn-Pro-amanitin (7)", "value": 101, "unit": "%"}, {"measurement": "% viable cells", "setting": "2.5e-006 M, listed as Gdn-Pro-amanitin (7)", "value": 82, "unit": "%"}, {"measurement": "% viable cells", "setting": "3.125e-007 M, listed as Gdn-Pro-amanitin (7)", "value": 86, "unit": "%"}, {"measurement": "% viable cells", "setting": "6.25e-007 M, listed as Gdn-Pro-amanitin (7)", "value": "83% and 84%"}, {"measurement": "% viable cells", "setting": "7.8e-008 M, listed as Gdn-Pro-amanitin (7)", "value": 92, "unit": "%"}]}
{"smiles": "CC[C@H](C)[C@@H]1NC(=O)CNC(=O)[C@@H]2Cc3c([nH]c4ccccc34)SC[C@H](NC(=O)CNC1=O)C(=O)N[C@@H](CC(N)=O)C(=O)N1C[C@H](S)C[C@H]1C(=O)N[C@@H]([C@@H](C)[C@@H](O)CO)C(=O)N2", "note": "[Compound 5, SH-Pro-amanitin] (cyclo(CN[Pro(4R-SH)][Ile(4R-OH,5-OH)][Trp(2-yl)]GIG); thioether 1-5)", "values": [{"measurement": "% viable cells", "setting": "1e-005 M, listed as SH-Pro-amanitin (5)", "value": 95, "unit": "%"}, {"measurement": "% viable cells", "setting": "1.25e-006 M, listed as SH-Pro-amanitin (5)", "value": 92, "unit": "%"}, {"measurement": "% viable cells", "setting": "2e-005 M, listed as SH-Pro-amanitin (5)", "value": 97, "unit": "%"}, {"measurement": "% viable cells", "setting": "2.5e-006 M, listed as SH-Pro-amanitin (5)", "value": 99, "unit": "%"}, {"measurement": "% viable cells", "setting": "3.125e-007 M, listed as SH-Pro-amanitin (5)", "value": 90, "unit": "%"}, {"measurement": "% viable cells", "setting": "5e-006 M, listed as SH-Pro-amanitin (5)", "value": "90% and 96%"}, {"measurement": "% viable cells", "setting": "6.25e-007 M, listed as SH-Pro-amanitin (5)", "value": "92% and 95%"}, {"measurement": "% viable cells", "setting": "7.8e-008 M, listed as SH-Pro-amanitin (5)", "value": 89, "unit": "%"}]}
{"smiles": "CC[C@H](C)[C@@H]1NC(=O)CNC(=O)[C@@H]2Cc3c([nH]c4ccccc34)SC[C@H](NC(=O)CNC1=O)C(=O)N[C@@H](CC(N)=O)C(=O)N1C[C@H](N)C[C@H]1C(=O)N[C@@H]([C@@H](C)[C@@H](O)CO)C(=O)N2", "note": "[Compound 6, NH2-Pro-amanitin] (cyclo(CN[Pro(4R-NH2)][Ile(4R-OH,5-OH)][Trp(2-yl)]GIG); thioether 1-5)", "values": [{"measurement": "% viable cells", "setting": "1e-005 M, listed as NH2-Pro-amanitin (6)", "value": "81% and 83%"}, {"measurement": "% viable cells", "setting": "1.25e-006 M, listed as NH2-Pro-amanitin (6)", "value": 88, "unit": "%"}, {"measurement": "% viable cells", "setting": "1.56e-007 M, listed as NH2-Pro-amanitin (6)", "value": 97, "unit": "%"}, {"measurement": "% viable cells", "setting": "2e-005 M, listed as NH2-Pro-amanitin (6)", "value": "89% and 85%"}, {"measurement": "% viable cells", "setting": "2.5e-006 M, listed as NH2-Pro-amanitin (6)", "value": "85% and 82%"}, {"measurement": "% viable cells", "setting": "5e-006 M, listed as NH2-Pro-amanitin (6)", "value": "79% and 84%"}, {"measurement": "% viable cells", "setting": "6.25e-007 M, listed as NH2-Pro-amanitin (6)", "value": 85, "unit": "%"}, {"measurement": "% viable cells", "setting": "7.8e-008 M, listed as NH2-Pro-amanitin (6)", "value": 89, "unit": "%"}]}
{"smiles": "CC[C@H](C)[C@@H]1NC(=O)CNC(=O)[C@@H]2Cc3c([nH]c4ccccc34)SC[C@H](NC(=O)CNC1=O)C(=O)N[C@@H](CC(N)=O)C(=O)N1C[C@H](C#N)C[C@H]1C(=O)N[C@@H]([C@@H](C)[C@@H](O)CO)C(=O)N2", "note": "[Compound 4, CN-Pro-amanitin] (cyclo(CN[X1][Ile(4R-OH,5-OH)][Trp(2-yl)]GIG); thioether 1-5)", "values": [{"measurement": "% viable cells", "setting": "1e-005 M, listed as CN-Pro-amanitin (4)", "value": 90, "unit": "%"}, {"measurement": "% viable cells", "setting": "1.25e-006 M, listed as CN-Pro-amanitin (4)", "value": "91% and 92%"}, {"measurement": "% viable cells", "setting": "1.56e-007 M, listed as CN-Pro-amanitin (4)", "value": "93% and 87%"}, {"measurement": "% viable cells", "setting": "2e-005 M, listed as CN-Pro-amanitin (4)", "value": "118% and 108%"}, {"measurement": "% viable cells", "setting": "2.5e-006 M, listed as CN-Pro-amanitin (4)", "value": "91% and 87%"}, {"measurement": "% viable cells", "setting": "3.125e-007 M, listed as CN-Pro-amanitin (4)", "value": "92% and 90%"}, {"measurement": "% viable cells", "setting": "5e-006 M, listed as CN-Pro-amanitin (4)", "value": "92% and 90%"}, {"measurement": "% viable cells", "setting": "6.25e-007 M, listed as CN-Pro-amanitin (4)", "value": "89% and 92%"}]}
